This assay has as its target T1, human P2X4 (Homo sapiens, UniProt Q99571).
T1 sequence (Q99571 1-388): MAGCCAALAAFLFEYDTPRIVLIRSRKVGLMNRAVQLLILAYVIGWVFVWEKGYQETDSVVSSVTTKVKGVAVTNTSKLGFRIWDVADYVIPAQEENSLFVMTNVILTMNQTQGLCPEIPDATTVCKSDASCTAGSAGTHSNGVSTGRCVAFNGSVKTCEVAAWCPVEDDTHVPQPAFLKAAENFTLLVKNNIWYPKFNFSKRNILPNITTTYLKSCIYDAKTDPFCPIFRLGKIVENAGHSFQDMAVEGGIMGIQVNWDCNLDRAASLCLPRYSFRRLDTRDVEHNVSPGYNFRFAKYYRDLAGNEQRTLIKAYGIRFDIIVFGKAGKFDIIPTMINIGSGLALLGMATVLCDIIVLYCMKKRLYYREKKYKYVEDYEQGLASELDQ
Briefly: Human P2X4 HEK Cell FLIPR Assay. The assay is classed as cell-based. The following applies: agonist Bz-ATP at EC80; for Emax: HEK293, HEK293 cells, read-out: Human P2X4 HEK Cells (FLIPR Assay) avg Efficacy [%]; for Emax / Human P2X4 HEK Cells (FLIPR Assay) avg Efficacy [%]: percentage of maximal inhibition; for IC50 / Human P2X4 HEK Cells (FLIPR Assay) avg Efficacy [%]: HEK293 cells; for IC50: individual values listed where some fall outside detection range. As to the method: HEK293 cells stably expressing human P2X4 were plated in poly-D-lysine-coated 384-well plates at a seeding density of 30000 cells/well and incubated overnight. P2X4 function was assessed by measuring intracellular calcium changes using the calcium-chelating dye Fluo8-AM (Molecular Devices) on a fluorescent imaging plate reader (FLEX/FLIPR station; Molecular Devices). On the day of the assay, the medium was removed and the cells were incubated for 30 min at 37° C. and 5% CO2 in 30 μL of dye buffer (Hank's balanced salt solution, 10 mM HEPES, 1.8 mM CaCl2, 1 mM MgCl2, 2 mM probenecid, 5 mM D-glucose monohydrate, 5 μM Fluo8-AM, pH=7.4). Compounds diluted in probenecid buffer (Hank's balanced salt solution, 10 mM HEPES, 1.8 mM CaCl2, 1 mM MgCl2, 2 mM probenecid, 5 mM D-glucose monohydrate, pH=7.4) were added in a volume of 10 μL and allowed to incubate for 30 min at room temperature. The final assay DMSO concentration was 0.5%. The agonist, Bz-ATP (Tocris), was added in a volume of 10 μL at a concentration representing the EC80 value. The EC80 value of Bz-ATP was determined each assay day prior to compound profiling. The fluorescence was measured for an interval of 120 sec at 2 sec intervals. The excitation and emission wavelengths used to monitor fluorescence were 470-495 nm and 515-575 nm, respectively. The data was analyzed based on the increase in peak relative fluorescence units (RFU) compared to the basal fluorescence and the data was normalized to the agonist control. The compounds were tested in triplicates per plate and mean values were plotted in Excel XLFit to determine IC50 values, percentage of maximal inhibition and the Hill coefficients.

As usually defined, the IC50 is the concentration needed to halve the response being measured. Turning to `CC(C(=O)Nc1cnn(-c2ccc(NC(=O)Cc3ccccc3Cl)cc2S(N)(=O)=O)c1)C(F)(F)F` (racemic) [Example 508, N-[1-(4-{[(2-Chlorophenyl)acetyl]amino}-2-sulfamoylphenyl)-1H-pyrazol-4-yl]-3,3,3-trifluoro-2-methylpropanamide], the Emax was found to be 63% and the half-inhibitory concentration (IC50) was 172 nM.

As for `CC(C(=O)Nc1cnn(-c2ccc(NC(=O)Cc3ccccc3Cl)cc2S(N)(=O)=O)c1)C(F)(F)F` (single isomer, unassigned) [Example 509, N-[1-(4-{[(2-Chlorophenyl)acetyl]amino}-2-sulfamoylphenyl)-1H-pyrazol-4-yl]-3,3,3-trifluoro-2-methylpropanamide], the Emax turned out to be 71% and the half-maximal inhibitory concentration (IC50) came out at 326 nM. `CC(C(=O)Nc1cnn(-c2ccc(NC(=O)Cc3ccccc3Cl)cc2S(N)(=O)=O)c1)C(F)(F)F` (single isomer, unassigned) [Example 510, N-[1-(4-{[(2-Chlorophenyl)acetyl]amino}-2-sulfamoylphenyl)-1H-pyrazol-4-yl]-3,3,3-trifluoro-2-methylpropanamide]: the IC50 stood at 439 nM and the “Human P2X4 HEK Cells (FLIPR Assay) avg Efficacy [%]” value stood at 73%. Consider `C[C@H]1CC[C@H](C)N1c1cnn(-c2ccc(NC(=O)Cc3ccccc3Cl)cc2S(N)(=O)=O)c1` (single isomer, unassigned) [Example 512, 2-(2-Chlorophenyl)-N-(4-{4-[(trans)-2,5-dimethylpyrrolidin-1-yl]-1H-pyrazol-1-yl}-3-sulfamoylphenyl)acetamide], for which the Emax worked out at 76% and the IC50 amounted to 4250 nM. Regarding `C[C@H]1CC[C@H](C)N1c1cnn(-c2ccc(NC(=O)Cc3ccccc3Cl)cc2S(N)(=O)=O)c1` (single isomer, unassigned) [Example 513, 2-(2-Chlorophenyl)-N-(4-{4-[(trans)-2,5-dimethylpyrrolidin-1-yl]-1H-pyrazol-1-yl}-3-sulfamoylphenyl)acetamide], the concentration for half-maximal inhibition (IC50) was 893 nM and the “Human P2X4 HEK Cells (FLIPR Assay) avg Efficacy [%]” value was 94%. For the compound `NS(=O)(=O)c1cc(NC(=O)Cc2ccccc2Cl)ccc1-n1ccc(Cl)cc1=O` [Example 2, N-[4-(4-Chloro-2-oxopyridin-1(2H)-yl)-3-sulfamoylphenyl]-2-(2-chlorophenyl)-acetamide], the Emax came out at 50% and the 50% inhibitory concentration (IC50) turned out to be 19400 nM. As for `NS(=O)(=O)c1cc(NC(=O)Cc2ccccc2Cl)ccc1-n1cc(Cl)cc(Cl)c1=O` [Example 3, 2-(2-Chlorophenyl)-N-[4-(3,5-dichloro-2-oxopyridin-1(2H)-yl)-3-sulfamoylphenyl]-acetamide], the Emax came out at 76% and the IC50 was found to be 942 nM. As to `NS(=O)(=O)c1cc(NC(=O)Cc2ccccc2Cl)ccc1-n1cccc(Cl)c1=O` [Example 4, N-[4-(3-Chloro-2-oxopyridin-1(2H)-yl)-3-sulfamoylphenyl]-2-(2-chlorophenyl)-acetamide], the Emax turned out to be 83% and the IC50 came to 259 nM. For the compound `Cc1ncn(-c2ccc(NC(=O)Cc3ccccc3Cl)cc2S(N)(=O)=O)n1` [Example 5, 2-(2-Chlorophenyl)-N-[4-(3-methyl-1H-1,2,4-triazol-1-yl)-3-sulfamoylphenyl]-acetamide], the Emax came to 91% and the IC50 was 249 nM. Consider `Cc1ncnn1-c1ccc(NC(=O)Cc2ccccc2Cl)cc1S(N)(=O)=O` [Example 6, 2-(2-Chlorophenyl)-N-[4-(5-methyl-1H-1,2,4-triazol-1-yl)-3-sulfamoylphenyl]-acetamide], for which the Emax was 84% and the IC50 amounted to 1070 nM. `NS(=O)(=O)c1cc(NC(=O)Cc2ccccc2Cl)ccc1-n1cnc(C(F)(F)F)n1` [Example 7, 2-(2-Chlorophenyl)-N-{3-sulfamoyl-4-[3-(trifluoromethyl)-1H-1,2,4-triazol-1-yl]-phenyl}acetamide]: the Emax came out at 73% and the IC50 is 3080 nM. On to `Cc1nc(C(F)(F)F)nn1-c1ccc(NC(=O)Cc2ccccc2Cl)cc1S(N)(=O)=O` [Example 8, 2-(2-Chlorophenyl)-N-{4-[5-methyl-3-(trifluoromethyl)-1H-1,2,4-triazol-1-yl]-3-sulfamoylphenyl}acetamide], for which the Emax worked out at 79% and the IC50 was 2560 nM.

Take `NS(=O)(=O)c1cc(NC(=O)Cc2ccccc2Cl)ccc1-n1ccnc1` [Example 9, 2-(2-Chlorophenyl)-N-[4-(1H-imidazol-1-yl)-3-sulfamoylphenyl]acetamide]: the Emax came to 83% and the IC50 worked out at 7 nM. Take `NS(=O)(=O)c1cc(NC(=O)Cc2ccccc2Cl)ccc1-n1cnc(C(F)(F)F)c1` [Example 10, 2-(2-Chlorophenyl)-N-{3-sulfamoyl-4-[4-(trifluoromethyl)-1H-imidazol-1-yl]phenyl}-acetamide]: the Emax turned out to be 81% and the 50% inhibitory concentration (IC50) amounted to 7 nM. For `NS(=O)(=O)c1cc(NC(=O)Cc2ccccc2Cl)ccc1-n1ccc(C(F)(F)F)n1` [Example 11, 2-(2-Chlorophenyl)-N-{3-sulfamoyl-4-[3-(trifluoromethyl)-1H-pyrazol-1-yl]phenyl}-acetamide], the Emax is 31% and the IC50 is above 25000 nM. On the same counts, the results for `NS(=O)(=O)c1cc(NC(=O)Cc2ccccc2Cl)ccc1-n1ccc(C(F)F)n1` [Example 12, 2-(2-Chlorophenyl)-N-{4-[3-(difluoromethyl)-1H-pyrazol-1-yl]-3-sulfamoyl-phenyl}acetamide] are 34% and above 25000 nM. Turning to `NS(=O)(=O)c1cc(NC(=O)Cc2ccccc2Cl)ccc1-n1nc(C(F)F)cc1C1CC1` [Example 13, 2-(2-Chlorophenyl)-N-{4-[5-cyclopropyl-3-(difluoromethyl)-1H-pyrazol-1-yl]-3-sulfamoylphenyl}acetamide], the Emax turned out to be 100% and the IC50 amounted to 514 nM. As to `Cc1cn(-c2ccc(NC(=O)Cc3ccccc3Cl)cc2S(N)(=O)=O)nc1C(F)(F)F` [Example 14, 2-(2-Chlorophenyl)-N-{4-[4-methyl-3-(trifluoromethyl)-1H-pyrazol-1-yl]-3-sulfamoylphenyl}acetamide], the Emax stood at 26% and the 50% inhibitory concentration (IC50) is above 25000 nM.

`Cc1cc(C(F)(F)F)nn1-c1ccc(NC(=O)Cc2ccccc2Cl)cc1S(N)(=O)=O` [Example 15, 2-(2-Chlorophenyl)-N-{4-[5-methyl-3-(trifluoromethyl)-1H-pyrazol-1-yl]-3-sulfamoylphenyl}acetamide]: the Emax was 99% and the IC50 came to 379 nM.

Turning to `NS(=O)(=O)c1cc(NC(=O)Cc2ccccc2Cl)ccc1-n1cncn1` [Example 16, 2-(2-Chlorophenyl)-N-[3-sulfamoyl-4-(1H-1,2,4-triazol-1-yl)phenyl]acetamide], the Emax is 89% and the IC50 is 262 nM.

Take `NS(=O)(=O)c1cc(NC(=O)Cc2ccccc2Cl)ccc1-n1cnc(C(F)F)n1` [Example 17, 2-(2-Chlorophenyl)-N-{4-[3-(difluoromethyl)-1H-1,2,4-triazol-1-yl]-3-sulfamoyl-phenyl}acetamide]: the Emax came to 89% and the IC50 is 288 nM. Turning to `NS(=O)(=O)c1cc(NC(=O)Cc2ccccc2F)ccc1-n1cnc(C(F)F)n1` [Example 18, N-{4-[3-(Difluoromethyl)-1H-1,2,4-triazol-1-yl]-3-sulfamoylphenyl}-2-(2-fluoro-phenyl)acetamide], the Emax turned out to be 66% and the half-maximal inhibitory concentration (IC50) came out at 4700 nM.

For `NS(=O)(=O)c1cc(NC(=O)Cc2ccccc2F)ccc1-n1cc(C(F)(F)F)cn1` [Example 20, 2-(2-Fluorophenyl)-N-{3-sulfamoyl-4-[4-(trifluoromethyl)-1H-pyrazol-1-yl]phenyl}-acetamide], the Emax worked out at 67%. With `NS(=O)(=O)c1cc(NC(=O)Cc2ccccc2C(F)F)ccc1-n1cc(C(F)(F)F)cn1` [Example 21, 2-[2-(Difluoromethyl)phenyl]-N-{3-sulfamoyl-4-[4-(trifluoromethyl)-1H-pyrazol-1-yl]phenyl}acetamide], the Emax is 67% and the IC50 was 170 nM. In the same order, the values of `NS(=O)(=O)c1cc(NC(=O)Cc2ccccc2C(F)(F)F)ccc1-n1cc(C(F)(F)F)cn1` [Example 22, N-{3-Sulfamoyl-4-[4-(trifluoromethyl)-1H-pyrazol-1-yl]phenyl}-2-[2-(trifluoromethyl)-phenyl]acetamide] are 76% and 224 nM.

For the origin of these results see US11524938B2, “Aromatic sulfonamide derivatives” (Bayer Pharma Aktiengesellschaft, priority 2016, dated 2022).
